From publication PMC6689897, “Drugging an undruggable pocket on KRAS” (Proceedings of the National Academy of Sciences of the …, 2019) come the findings set out here.

Molecules are shown by their SMILES. Where “and” joins values, the source holds several entries; their conditions need not be identical. Equal values may be shown once.

This assay addresses GCP-KRASwt (Homo sapiens, UniProt P01116). Kind of assay: ITC. The class given is binding. The conditions noted are these: for Kd: 25°C. The method, then:
80 difference spectrum. Mixtures of four fragments (each at 250 µM) were incubated in 25
82 a mixture of GCP-KRASG12D and GDP-KRASG12V (each 4 µM). Binders were identified
83 by comparing pre-recorded reference spectra with the STD difference spectrum.
84 Deconvolution and confirmation of primary FBS hits obtained from STD-NMR and
85 MST was performed using 2D 1H/15N TROSY NMR experiments(2) collected on a
86 Bruker Avance III 600 MHz spectrometer equipped with a 5 mm z-gradient TCI cryo-
87 probe. Samples were prepared directly before data acquisition using a Tecan Freedom
88 Evo pipetting system and delivered by a Bruker Sample Rail to the magnet. Each sample
89 contained either 50 µM 15N labeled GDP-KRASG12D or GCP-KRASG12D in 25 mM Tris-
90 d11, 100 mM NaCl, 2 mM MgCl2, 0.5 mM TCEP pH 7.4 and 8% (v/v) D2O. Proteins
91 were incubated with 500 µM fragment in a 2.5 mm NMR tube at 298K and 1%
92 d6DMSO. Spectra were recorded with 32 transients and 64 data points in the indirect
93 dimension. Processing and analysis were accomplished with Topspin 3.0 (Bruker
94 BioSpin). Binders were identified by manual comparison of spectra in the presence of a
95 fragment and the respective reference spectrum. All confirmed binders to 15N labeled
96 GDP-KRASG12D show also chemical shift perturbations in the presence of 15N labeled
97 GDP-KRASG12V and are therefore non-selective.
98 Measurement of dissociation constants KD for the compounds synthesized. NMR
99 was initially the only method that could provide K Ds for the weakly binding molecules to
100 support compound optimization. 1H/15N SoFast HMQC experiments(3) were recorded in
101 3mm NMR tubes (170µL filling) at a protein concentration of 70-100µM. Spectra were
102 recorded on a Avance III 700MHz spectrometer equipped with a cryogenically cooled
103 5mm TCI probe and 48 scans, 128 f1 increments and 2k data points in f2. Total
104 acquisition time was 22 minutes. 4 – 6 titration points were performed w ith individual
105 samples for each titration point made from 50mM DMSO -d6 stock solutions. Total
106 DMSO-d6 concentration was kept constant by backfilling every sample to a total of 4%
107 DMSO. KDs were calculated from the differences in chemical shift induced by t he small
108 molecules upon interacting with the protein. Average chemical shifts from the 1H and 15N
109 dimension were calculated according to the following equation:
110 ∆δobs = √[δH2 + (α ∙δN)2] with α set to 0.14
111 The Δδobs values at the respective ligand concentrations and the total concentration
112 of protein allow a fit to the KD value of the ligand as long as it is binding under fast
113 exchange conditions as was the case for most of the compounds tested.(4) Usually Δδobs
115 following equation was used to determine the individual KDs:
116 ∆δobs = ∆δmax [([P]t + [L]t + KD) − [([P]t + [L]t + KD)2 − 4([P]t[L]t)]1/2]/2[P]t
119 Calorimetric experiments were performed on a Microcal PEAQ-ITC calorimeter
120 (MicroCalTM, LLC Northampton, MA). Protein solutions were measured in 20 mM
121 HEPES, 150 mM NaCl, 3% DMSO, pH 7.5. All measurements were carried out at 25°C.
122 Titrations were performed in inverse mode. The cell was loaded with compound solutions
123 in the range of 10 to 100 µM. All injections were performed using an initial injection of
124 0.5 μL followed by 19 injections of 2 μL of protein in the range of 130-500 µM. The data
125 were analyzed with the MicroCal PEAQ-ITC analysis software package. The first data
126 point was excluded from the analysis. Thermodynamic parameters were calculated (ΔG =
127 ΔH - TΔS = -RTlnKB, where ΔG, ΔH and ΔS are the changes in free energy, enthalpy and
128 entropy of binding, respectively).
130 Protein purification, nucleotide exchange and crystallization
131 The KRAS construct, based on uniprot identifier P01116 -2 (KRAS4-B) amino acids
134 G12V) were expressed with an N-terminal His6-tag followed by a TEV (tobacco etch

Sequence of GCP-KRASwt (P01116 1-169 isoform P01116-2): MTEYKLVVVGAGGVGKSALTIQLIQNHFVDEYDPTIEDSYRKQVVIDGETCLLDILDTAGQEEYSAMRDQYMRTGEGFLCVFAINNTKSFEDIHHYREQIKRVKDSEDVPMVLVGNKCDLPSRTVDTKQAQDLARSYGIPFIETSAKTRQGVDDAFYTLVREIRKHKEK

The term Kd denotes the concentration at which binding is half-saturated. A low value points to a tighter complex. For `Cn1cnc(Cn2ccc3ccc(CNCc4[nH]c5ccccc5c4[C@H]4NC(=O)c5ccc(O)cc54)cc32)c1` [Compound 1], the “selectivity of binding to GCP-KRAS^wt (active KRAS^wt)” value is 5- to 10 fold and 10 fold; the Kd was 7.5 µM.
Compound `CN(C)Cc1[nH]c2ccccc2c1[C@H]1NC(=O)c2ccc(O)cc21` [Compound 18] had a Kd of 49 µM.
